Results as given in patent US6350477B1, “Food material containing antioxidant ingredient derived from citrus fruits” (Pokka Corporation, priority 1998, dated 2002).

How the values were obtained:
[1] = Mutagenicity test according to Rec-assay; assay type: cell-based
Method: (§1) Eriocitrin is an ingredient derived from natural products, and it is contained in a juice of citrus fruits such as lemon and lime which have been already eaten in a large amount of several tens of milligrams per 100 ml. There is no problem with a safety to humans. It is negative in the mutagenicity test according to Rec-assay or Ames assay. Thus, the safety has been identified.

[2] = Mutagenicity test according to Ames assay; assay type: cell-based
Method: as §1

Structure (SMILES): C[C@@H]1O[C@@H](OC[C@H]2O[C@@H](Oc3cc(O)c4c(c3)O[C@H](c3ccc(O)c(O)c3)CC4=O)[C@H](O)[C@@H](O)[C@@H]2O)[C@H](O)[C@H](O)[C@H]1O [Eriocitrin, eriodictyol-7-rutinoside]
- mutagenicity test according to Rec-assay [1]: negative
- mutagenicity test according to Ames assay [2]: negative
